Entries after “also recorded” stand apart in the source; their conditions may differ.
How the values were obtained:
[1] = system: GlyT2; conditions: read-out: GlyT2 IC50; cited from earlier work
[2] = following IV administration; cited from earlier work
[3] = system: nerve ligation rat model of neuropathic pain; assay type: in vivo; conditions: 30 mg/kg ip, compared to vehicle
[4] = system: GlyT1; conditions: cited from earlier work
[5] = system: male Sprague Dawley rats; assay: Side effects in the analgesia study; assay type: in vivo, rat; conditions: 30 mg/kg ip
[6] = target: T1, human GlyT2a (Homo sapiens, UniProt Q9Y345); assay type: cell-based
T1 sequence (Q9Y345 1-797): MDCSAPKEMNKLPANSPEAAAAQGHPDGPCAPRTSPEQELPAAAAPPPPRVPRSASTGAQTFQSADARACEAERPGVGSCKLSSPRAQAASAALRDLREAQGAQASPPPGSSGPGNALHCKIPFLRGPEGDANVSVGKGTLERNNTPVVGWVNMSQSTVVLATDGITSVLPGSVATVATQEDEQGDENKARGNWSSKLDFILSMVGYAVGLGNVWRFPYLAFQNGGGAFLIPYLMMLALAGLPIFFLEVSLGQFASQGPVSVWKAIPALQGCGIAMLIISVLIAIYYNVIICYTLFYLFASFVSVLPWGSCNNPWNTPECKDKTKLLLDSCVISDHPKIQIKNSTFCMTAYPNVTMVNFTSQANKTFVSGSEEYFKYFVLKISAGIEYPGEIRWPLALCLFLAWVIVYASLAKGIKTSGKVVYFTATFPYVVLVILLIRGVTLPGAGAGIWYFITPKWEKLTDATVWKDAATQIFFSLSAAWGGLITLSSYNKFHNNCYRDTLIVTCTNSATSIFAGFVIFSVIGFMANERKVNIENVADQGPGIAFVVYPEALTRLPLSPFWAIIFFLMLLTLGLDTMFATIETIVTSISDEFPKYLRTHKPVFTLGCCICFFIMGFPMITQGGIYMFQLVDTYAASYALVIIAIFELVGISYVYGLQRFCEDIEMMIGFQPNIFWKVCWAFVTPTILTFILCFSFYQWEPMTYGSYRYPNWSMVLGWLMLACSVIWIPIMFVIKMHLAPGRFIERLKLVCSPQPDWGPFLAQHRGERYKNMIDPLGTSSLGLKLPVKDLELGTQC

[7] = Stability in human liver microsomes; assay type: in vitro ADME; conditions: for half-life at 1 μM: human, human liver microsomes, pH 7.4
[8] = Stability in rat plasma; assay type: in vitro ADME
[9] = Stability in human plasma; assay type: in vitro ADME
[10] = Stability in rat liver microsomes; assay type: in vitro ADME
[11] = target: T2, GlyT2 (Homo sapiens, UniProt Q9Y345); assay type: cell-based
T2 sequence (Q9Y345 1-797): T1 sequence (Q9Y345 1-797)

[12] = target: T3, human GlyT1b (Homo sapiens, UniProt P48067); assay type: cell-based; conditions: 3 μM (maximal concentration)
T3 sequence (P48067 1-652 isoform P48067-3): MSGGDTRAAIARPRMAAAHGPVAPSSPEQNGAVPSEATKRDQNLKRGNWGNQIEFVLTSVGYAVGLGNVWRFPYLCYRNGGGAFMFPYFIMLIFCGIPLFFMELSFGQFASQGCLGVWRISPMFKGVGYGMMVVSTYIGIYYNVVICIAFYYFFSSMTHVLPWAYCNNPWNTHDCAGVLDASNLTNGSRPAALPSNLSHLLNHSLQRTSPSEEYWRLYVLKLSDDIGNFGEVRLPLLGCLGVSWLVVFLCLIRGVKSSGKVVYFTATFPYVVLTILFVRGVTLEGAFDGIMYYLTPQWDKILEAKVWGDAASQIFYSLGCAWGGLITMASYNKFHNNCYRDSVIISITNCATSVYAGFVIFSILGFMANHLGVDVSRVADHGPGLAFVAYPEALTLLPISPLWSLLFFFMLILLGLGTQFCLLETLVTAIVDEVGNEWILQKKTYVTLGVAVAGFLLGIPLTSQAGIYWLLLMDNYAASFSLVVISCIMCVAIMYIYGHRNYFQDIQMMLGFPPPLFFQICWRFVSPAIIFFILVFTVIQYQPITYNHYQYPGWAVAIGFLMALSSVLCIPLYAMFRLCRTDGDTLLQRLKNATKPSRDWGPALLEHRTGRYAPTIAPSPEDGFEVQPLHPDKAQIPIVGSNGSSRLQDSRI

[13] = system: Cav channels; assay: Pain target screen, Cav channels
[14] = target: μOR (Homo sapiens, UniProt P35372); assay: μOR agonist/antagonist activity in AtT20 cells expressing μORs; assay type: cell-based; conditions: 1 μM
[15] = target: T4, Adrenergic α2A receptor (Homo sapiens, UniProt P08913); assay: Selectivity panel, displacement of radioactive ligand; assay type: binding; conditions: 10 μM
T4 sequence (P08913 1-465): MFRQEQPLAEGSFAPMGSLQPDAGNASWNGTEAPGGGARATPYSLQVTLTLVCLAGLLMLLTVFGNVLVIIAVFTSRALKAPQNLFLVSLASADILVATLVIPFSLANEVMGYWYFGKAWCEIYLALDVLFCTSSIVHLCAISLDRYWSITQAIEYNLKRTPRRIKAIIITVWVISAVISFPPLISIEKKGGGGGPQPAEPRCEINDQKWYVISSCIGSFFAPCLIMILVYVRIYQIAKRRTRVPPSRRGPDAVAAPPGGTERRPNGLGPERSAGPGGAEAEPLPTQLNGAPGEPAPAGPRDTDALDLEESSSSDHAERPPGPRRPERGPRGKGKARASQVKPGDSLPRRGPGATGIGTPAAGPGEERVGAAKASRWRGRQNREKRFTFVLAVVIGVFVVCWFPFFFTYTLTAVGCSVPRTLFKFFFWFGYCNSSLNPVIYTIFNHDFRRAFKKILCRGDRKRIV

[16] = target: μ opioid receptor (μOR) (Homo sapiens, UniProt P35372); assay: as above; assay type: binding; conditions: 10 μM
[17] = In vivo pharmacokinetic study, plasma and brain exposure; set-up: species or system rat
[18] = target: α7 nicotinic acetylcholine receptors (Homo sapiens, UniProt P36544); assay: Pain target screen, α7 nicotinic acetylcholine receptors
[19] = system: sphingosine-1-phosphate receptor; assay: Lipid receptor screen, agonist/antagonist
[20] = target: CB2 (Homo sapiens, UniProt P34972); assay: Lipid receptor screen, agonist/antagonist
[21] = target: CB1 (Homo sapiens, UniProt P21554); assay: Lipid receptor screen, agonist/antagonist
[22] = system: Nav channels; assay: Pain target screen, Nav channels
[23] = target: T2, GlyT2; assay: Electrophysiology washout assay; assay type: cell-based; conditions: IC50 concentration of inhibitor, after 25 minutes wash
[24] = target: norepinephrine transporter (Homo sapiens, UniProt P23975); assay: Selectivity panel, displacement of radioactive ligand; assay type: binding; conditions: 10 μM
norepinephrine transporter, sequence (P23975 whole entry, species assumed): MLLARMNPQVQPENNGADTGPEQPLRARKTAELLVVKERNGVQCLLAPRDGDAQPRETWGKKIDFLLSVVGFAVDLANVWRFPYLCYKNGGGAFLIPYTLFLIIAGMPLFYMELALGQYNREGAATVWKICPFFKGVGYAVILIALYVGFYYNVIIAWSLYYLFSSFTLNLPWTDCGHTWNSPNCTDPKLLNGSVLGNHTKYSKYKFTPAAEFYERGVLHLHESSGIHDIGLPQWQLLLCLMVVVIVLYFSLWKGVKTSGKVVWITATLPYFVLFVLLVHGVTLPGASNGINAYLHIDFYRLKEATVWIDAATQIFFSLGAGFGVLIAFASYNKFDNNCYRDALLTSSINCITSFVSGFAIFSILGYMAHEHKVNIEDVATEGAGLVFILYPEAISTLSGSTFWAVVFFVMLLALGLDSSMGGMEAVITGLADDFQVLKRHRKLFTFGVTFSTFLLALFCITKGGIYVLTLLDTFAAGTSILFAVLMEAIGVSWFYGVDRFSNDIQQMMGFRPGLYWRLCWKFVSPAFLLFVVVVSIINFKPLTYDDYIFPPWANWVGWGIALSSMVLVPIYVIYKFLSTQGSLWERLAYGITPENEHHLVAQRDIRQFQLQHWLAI

CB2, sequence (P34972 whole entry, species assumed): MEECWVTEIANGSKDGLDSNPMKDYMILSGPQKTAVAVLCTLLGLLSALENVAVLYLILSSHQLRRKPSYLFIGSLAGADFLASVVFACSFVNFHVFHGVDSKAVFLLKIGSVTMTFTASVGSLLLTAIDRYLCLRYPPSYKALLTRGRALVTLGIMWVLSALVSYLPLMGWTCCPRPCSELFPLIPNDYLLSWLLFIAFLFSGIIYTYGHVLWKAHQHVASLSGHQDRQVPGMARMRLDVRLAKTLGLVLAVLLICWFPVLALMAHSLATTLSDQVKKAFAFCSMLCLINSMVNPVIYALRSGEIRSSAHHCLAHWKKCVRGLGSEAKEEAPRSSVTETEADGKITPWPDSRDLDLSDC
α7 nicotinic acetylcholine receptors, sequence (P36544 23-502): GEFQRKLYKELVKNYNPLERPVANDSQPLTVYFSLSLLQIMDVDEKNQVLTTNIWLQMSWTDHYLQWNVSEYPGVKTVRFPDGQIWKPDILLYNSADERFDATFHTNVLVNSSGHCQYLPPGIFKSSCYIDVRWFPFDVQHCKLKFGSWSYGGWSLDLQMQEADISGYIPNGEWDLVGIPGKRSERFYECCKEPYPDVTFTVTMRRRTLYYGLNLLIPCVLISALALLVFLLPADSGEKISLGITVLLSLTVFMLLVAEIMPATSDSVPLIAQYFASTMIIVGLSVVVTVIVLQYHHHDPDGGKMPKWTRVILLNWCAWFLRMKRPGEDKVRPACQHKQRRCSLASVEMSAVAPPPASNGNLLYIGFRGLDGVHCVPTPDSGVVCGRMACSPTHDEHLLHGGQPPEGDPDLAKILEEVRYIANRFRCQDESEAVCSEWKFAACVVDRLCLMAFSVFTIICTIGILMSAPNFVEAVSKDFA
μOR, sequence (P35372 whole entry): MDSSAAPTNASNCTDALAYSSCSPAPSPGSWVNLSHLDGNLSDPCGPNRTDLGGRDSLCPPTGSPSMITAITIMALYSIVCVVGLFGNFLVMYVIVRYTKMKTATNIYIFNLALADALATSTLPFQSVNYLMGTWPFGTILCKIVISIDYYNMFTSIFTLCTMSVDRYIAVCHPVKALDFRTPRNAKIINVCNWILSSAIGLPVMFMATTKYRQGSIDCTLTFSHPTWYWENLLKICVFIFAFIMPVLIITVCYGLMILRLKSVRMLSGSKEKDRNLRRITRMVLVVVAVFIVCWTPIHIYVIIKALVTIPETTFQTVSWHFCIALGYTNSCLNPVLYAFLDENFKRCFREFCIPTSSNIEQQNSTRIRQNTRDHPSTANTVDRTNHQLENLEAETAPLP
μ opioid receptor (μOR), sequence (P35372 whole entry, species assumed): as the sequence (P35372 whole entry) above
CB1, sequence (P21554 whole entry, species assumed): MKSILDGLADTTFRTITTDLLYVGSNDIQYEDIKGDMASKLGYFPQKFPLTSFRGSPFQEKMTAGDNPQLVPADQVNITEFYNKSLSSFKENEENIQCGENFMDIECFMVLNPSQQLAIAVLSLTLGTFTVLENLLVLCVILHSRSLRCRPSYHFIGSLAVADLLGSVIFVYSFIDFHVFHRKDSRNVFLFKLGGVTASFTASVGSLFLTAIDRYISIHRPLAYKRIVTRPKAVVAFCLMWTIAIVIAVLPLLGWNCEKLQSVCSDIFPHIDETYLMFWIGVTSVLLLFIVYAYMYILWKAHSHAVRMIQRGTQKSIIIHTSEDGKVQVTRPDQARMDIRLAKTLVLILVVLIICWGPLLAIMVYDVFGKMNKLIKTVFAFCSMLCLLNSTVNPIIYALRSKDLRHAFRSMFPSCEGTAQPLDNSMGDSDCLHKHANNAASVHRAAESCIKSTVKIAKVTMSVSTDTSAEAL

## N[C@@H](COC(c1cccc(F)c1)c1ccccc1OCc1ccccc1)C(=O)O (stereo partly shown) [Compound 1, ALX1393]
[1]
  IC50: 100 nM
[2]
  ratio of unbound drug in brain and plasma (Kp,uu): 0.05

## COc1cc(C(=O)NCC2(N(C)C)CCCC2)cc(OC)c1OCc1ccccc1 [Compound 2, ORG25543]
[3]
  reversal of allodynia (analgesia): Non-significant reversal of allodynia
[4]
  activity at GlyT1: no appreciable activity
[5]
  animals with side effects: 4 out of the 6
  duration of side effects post injection: up to 60 min
  side effects: more severe side effects
[1]
  IC50: 16 nM

## CCCCCCCC/C=C\CCCCCCCC(=O)NCC(=O)O [Compound 4, N-oleoyl glycine]
[4]; concentrations up to 10 μM
  effect on GlyT1: no effect

## CCCCC/C=C\C/C=C\C/C=C\C/C=C\CCCC(=O)NCC(=O)O [Compound 5, N-arachidonyl glycine]
[4]
  activity at GlyT1: little activity

## CCCCCCCC/C=C\CCCCCCCC(=O)N[C@@H](CCSC)C(=O)O [Compound 12, (2S)-4-methylsulfanyl-2-[[(Z)-octadec-9-enoyl]amino]butanoic acid]
[6]; relative to 14
  fold improvement in GlyT2 activity: ~ 9 fold

## CCCCCCCC/C=C\CCCCCCCC(=O)N[C@@H](CCCC)C(=O)O [Compound 14, (2S)-2-[[(Z)-octadec-9-enoyl]amino]hexanoic acid]
[6]; relative to 10
  fold less potent than 10 at GlyT2: 2 fold

## CCCCCCCC/C=C\CCCCCCCC(=O)N[C@@H](CCCCN)C(=O)O.Cl [Compound 32, (2S)-6-amino-2-[[(Z)-octadec-9-enoyl]amino]hexanoic acid.HCl]
[7]
  stability in human liver microsomes: stable
  half-life at 1 μM: > 4.25 h
[8]; rat plasma, relative to 4
  fold improvement of degradation half-life: ~ 3 fold
[9]; human, human plasma (pooled)
  half-life at 1000 ng/mL: > 17 h
[10]
  stability in rat liver microsomes: rapidly metabolised
[11]
  mechanism of GlyT2 inhibition: non-competitive inhibitor
[12]
  inhibition of GlyT1 glycine currents: not reduced

## CCCCCCCC/C=C\CCCCCCCC(=O)N[C@H](CCCCN)C(=O)O.Cl [Compound 33, (2R)-6-amino-2-[[(Z)-octadec-9-enoyl]amino]hexanoic acid.HCl]
[13]
  inhibition of Cav channels: no significant inhibition
[3]
  reversal of allodynia (analgesia): significant analgesia; also recorded: Significant reversal of allodynia
[7]
  stability in human liver microsomes: stable
  half-life at 1 μM: > 4.25 h
[14]
  activity as a μOR agonist or antagonist: no activity
[8]
  degradation in rat plasma: did not exhibit measurable degradation
[15]
  displacement of radioactive ligands: greater than 50%
[16]
  displacement of radioactive ligands: greater than 50%
[5]
  duration of side effects post injection: up to 15 min
  side effects: Mild side effects
[9]
  degradation in human plasma: did not exhibit measurable degradation
[17]; 27.5 mg/kg ip
  concentration of unbound drug (Cunbound) in brain at Cmax: approximately 90 nM
[17]; single 27.5 mg/kg ip, Sprague Dawley rats
  Cmax Brain: 1854 ng/g
[18]
  inhibition of α7 nicotinic acetylcholine receptors: no significant inhibition
[19]
  activity as agonist or antagonist at sphingosine-1-phosphate receptor: no activity
[10]
  stability in rat liver microsomes: minimally degraded
[10]; rat, rat liver microsomes, pH 7.4
  half-life at 1 μM: > 4.25 h
[20]
  activity as agonist or antagonist at CB2: no activity
[21]
  activity as agonist or antagonist at CB1: no activity
[22]
  inhibition of Nav channels: no significant inhibition
[23]
  recovery of transport after washout: completely restored
[24]
  displacement of radioactive ligands: greater than 50%
[12]
  inhibition of GlyT1 glycine currents: little inhibition

## CCCCCCCC/C=C\CCCCCCCC(=O)NCCCCCN.Cl [Compound 37, (Z)-N-(5-aminopentyl)octadec-9-enamide.HCl]
[6]; relative to 32
  fold reduction of GlyT2 potency: ~ 22 fold

Reference: article PMC6420064 (Journal of medicinal chemistry, 2019)
